Experimental findings from the Kinase Knowledgebase extract (Sharma et al. 2016) are described below.

Some results are limits rather than exact numbers.

The target in the assay is CDK2 (UniProt P24941). The experiment in a line: Enzyme Assay. The conditions noted are these: for inhibition: concentration not given here.

`CCCOCCNS(=O)(=O)c1ccc(Nc2nc(N)c(C(=O)c3c(F)cccc3F)s2)cc1`: the Ki is less than 5 nM.
For `COCCN(C)S(=O)(=O)c1ccc(Nc2nc(N)c(C(=O)c3c(F)cccc3F)s2)cc1`, the inhibition amounted to 4%.
Still for that read-out and setting: the figure for `CN(CC(O)CO)S(=O)(=O)c1ccc(Nc2nc(N)c(C(=O)c3c(F)cccc3F)s2)cc1` (stereo unspecified) is 15%.
The same measure, in the same setting: the figure for `COC(=O)CN(C)S(=O)(=O)c1ccc(Nc2nc(N)c(C(=O)c3c(F)cccc3F)s2)cc1` is 18%; for `Nc1nc(Nc2ccc(S(=O)(=O)N3CCC(CCO)CC3)cc2)sc1C(=O)c1c(F)cccc1F` it is 21%; for `N#CCCN(C1CC1)S(=O)(=O)c1ccc(Nc2nc(N)c(C(=O)c3c(F)cccc3F)s2)cc1` it is 8%.
Still for that read-out and setting: for `CN(CCO)S(=O)(=O)c1ccc(Nc2nc(N)c(C(=O)c3c(F)cccc3F)s2)cc1` the value was 28%.
Compound `Nc1nc(Nc2ccc(S(=O)(=O)NCCc3cccc(Cl)c3)cc2)sc1C(=O)c1c(F)cccc1F` displayed a Ki of less than 10 nM.
`Nc1nc(Nc2ccc(S(=O)(=O)N3CCOCC3)cc2)sc1C(=O)c1c(F)cccc1F`: the inhibition came out at 27%.
Still for that read-out and setting: the figure for `CN1CCC(N(C)S(=O)(=O)c2ccc(Nc3nc(N)c(C(=O)c4c(F)cccc4F)s3)cc2)CC1` is 9%; for `CN(CCc1ccccc1)S(=O)(=O)c1ccc(Nc2nc(N)c(C(=O)c3c(F)cccc3F)s2)cc1` it is 9%; for `CN(CCCCCCO)S(=O)(=O)c1ccc(Nc2nc(N)c(C(=O)c3c(F)cccc3F)s2)cc1` it is 28%.
The same measure, in the same setting: the figure for `Nc1nc(Nc2ccc(S(=O)(=O)N(CCO)CCO)cc2)sc1C(=O)c1c(F)cccc1F` is -1%.
Still for that read-out and setting: for `Nc1nc(Nc2ccc(S(=O)(=O)N3CCN(CC(=O)N4CCCC4)CC3)cc2)sc1C(=O)c1c(F)cccc1F` the value was 14%; for `CN(C)CCN(C)S(=O)(=O)c1ccc(Nc2nc(N)c(C(=O)c3c(F)cccc3F)s2)cc1`, 26%.
Turning to `CCN(CC)CCN(C)S(=O)(=O)c1ccc(Nc2nc(N)c(C(=O)c3c(F)cccc3F)s2)cc1`, the inhibition turned out to be 27%.
The same measure, in the same setting: for `Nc1nc(Nc2ccc(S(=O)(=O)N3CCN(CCOCCO)CC3)cc2)sc1C(=O)c1c(F)cccc1F` the value was -1%; for `NC(=O)C1CCN(S(=O)(=O)c2ccc(Nc3nc(N)c(C(=O)c4c(F)cccc4F)s3)cc2)CC1`, 40%.
Same read-out and setting: the figure for `C=CCN1CCN(S(=O)(=O)c2ccc(Nc3nc(N)c(C(=O)c4c(F)cccc4F)s3)cc2)CC1` is 6%; for `Nc1nc(Nc2ccc(S(=O)(=O)N3CCSCC3)cc2)sc1C(=O)c1c(F)cccc1F` it is 23%.
For the compound `Nc1nc(Nc2ccc(S(=O)(=O)NCCCc3ccccc3)cc2)sc1C(=O)c1c(F)cccc1F`, the Ki was found to be 3.6 nM.
For `CCN(CC)CCCN(C)S(=O)(=O)c1ccc(Nc2nc(N)c(C(=O)c3c(F)cccc3F)s2)cc1`, the inhibition came to 21%.
Consider `CC(C)CCCCNS(=O)(=O)c1ccc(Nc2nc(N)c(C(=O)c3c(F)cccc3F)s2)cc1`, for which the Ki turned out to be 3.7 nM.
As to `Nc1nc(Nc2ccc(S(=O)(=O)N3CCN(CCN4CCOCC4)CC3)cc2)sc1C(=O)c1c(F)cccc1F`, the inhibition is 11%.
Still for that read-out and setting: the figure for `CN(Cc1cccnc1)S(=O)(=O)c1ccc(Nc2nc(N)c(C(=O)c3c(F)cccc3F)s2)cc1` is 12%.
Consider `Nc1nc(Nc2ccc(S(=O)(=O)NCc3cc4ccccc4o3)cc2)sc1C(=O)c1c(F)cccc1F`, for which the Ki was found to be 4.6 nM.
On to `CN1CCN(S(=O)(=O)c2ccc(Nc3nc(N)c(C(=O)c4c(F)cccc4F)s3)cc2)CC1`, for which the inhibition stood at 18%.
On the same count and under the same terms, for `CN(CCc1ccncc1)S(=O)(=O)c1ccc(Nc2nc(N)c(C(=O)c3c(F)cccc3F)s2)cc1` the value was 19%; for `CN(CCc1ccccn1)S(=O)(=O)c1ccc(Nc2nc(N)c(C(=O)c3c(F)cccc3F)s2)cc1`, 16%; for `COCCN(CCOC)S(=O)(=O)c1ccc(Nc2nc(N)c(C(=O)c3c(F)cccc3F)s2)cc1`, 8%.
For `CN(CCC1OCCO1)S(=O)(=O)c1ccc(Nc2nc(N)c(C(=O)c3c(F)cccc3F)s2)cc1`, the inhibition was found to be 20%.
As for `CN(CCC#N)S(=O)(=O)c1ccc(Nc2nc(N)c(C(=O)c3c(F)cccc3F)s2)cc1`, the inhibition was 27%.
Consider `Nc1nc(Nc2ccc(S(=O)(=O)NCC3CCNCC3)cc2)sc1C(=O)c1c(F)cccc1F`, for which the Ki is 13 nM.
Same read-out and setting: for `Cn1cncc1CNS(=O)(=O)c1ccc(Nc2nc(N)c(C(=O)c3c(F)cccc3F)s2)cc1` the value was 6.9 nM.
Turning to `Nc1nc(Nc2ccc(S(=O)(=O)N3CCCC(CO)C3)cc2)sc1C(=O)c1c(F)cccc1F` (stereo unspecified), the inhibition was 30%.
For `Nc1nc(Nc2ccc(S(=O)(=O)N3CCN(c4ccc(F)cc4)CC3)cc2)sc1C(=O)c1c(F)cccc1F`, the inhibition was determined as 37%.
Same read-out and setting: for `CN1CCC(N(C)S(=O)(=O)c2ccc(Nc3nc(N)c(C(=O)c4c(F)cccc4F)s3)cc2)C1` (stereo unspecified) the value was 22%.
Compound `CC(C)(O)CCCCNS(=O)(=O)c1ccc(Nc2nc(N)c(C(=O)c3c(F)cccc3F)s2)cc1` displayed a Ki of 0.48 nM.
On the same count and under the same terms, the figure for `CCOC(=O)CNS(=O)(=O)c1ccc(Nc2nc(N)c(C(=O)c3c(F)cccc3F)s2)cc1` is 4.9 nM.
Take `CCN(CCO)S(=O)(=O)c1ccc(Nc2nc(N)c(C(=O)c3c(F)cccc3F)s2)cc1`: the inhibition stood at 24%.
With `Cc1cc(F)c(C(=O)c2sc(Nc3ccc(S(=O)(=O)NCc4ccc(C)o4)cc3)nc2N)c(F)c1`, the Ki is less than 10 nM.
